# According to ChEMBL document CHEMBL1201862, “PubChem BioAssay data set” (2004):
#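 Values below derive from 48-hour exposures of cells grown in 96-well plates, with endpoints linearly interpolated between the two concentrations bracketing the appropriate inhibition level. GI50: concentration for 50% inhibition of growth.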 The source made the active and inactive calls. Cut-off read from the data, not from the text of the source: active = GI50 up to about 1.1 µM and inactive = higher.
# Experiments:
# Experiment in all cases: DTP human tumour cell line panel, 48 h
# 786-0 = tested on: 786-0
# A498 = tested on: A498
# A549 = tested on: A549
# ACHN = tested on: ACHN
# BT-549 = tested on: BT-549
# CCRF-CEM = tested on: CCRF-CEM
# COLO 205 = tested on: COLO 205
# DU-145 = tested on: DU-145
# HCC 2998 = tested on: HCC 2998
# HCT-116 = tested on: HCT-116
# HCT-15 = tested on: HCT-15
# HL-60 = tested on: HL-60
# HOP-62 = tested on: HOP-62
# HOP-92 = tested on: HOP-92
# HT-29 = tested on: HT-29
# Hs-578T = tested on: Hs-578T
# IGROV-1 = tested on: IGROV-1
# K562 = tested on: K562
# KM12 = tested on: KM12
# LOX IMVI = tested on: LOX IMVI
# M14 = tested on: M14
# MCF7 = tested on: MCF7
# MDA-MB-231 = tested on: MDA-MB-231
# MDA-N = tested on: MDA-N
# MOLT-4 = tested on: MOLT-4
# Malme-3M = tested on: Malme-3M
# NCI-H226 = tested on: NCI-H226
# NCI-H23 = tested on: NCI-H23
# NCI-H460 = tested on: NCI-H460
# NCI-H522 = tested on: NCI-H522
# NCI/ADR-RES = tested on: NCI/ADR-RES
# OVCAR-3 = tested on: OVCAR-3
# OVCAR-4 = tested on: OVCAR-4
# OVCAR-5 = tested on: OVCAR-5
# PC-3 = tested on: PC-3
# RPMI-8226 = tested on: RPMI-8226
# RXF 393 = tested on: RXF 393
# SF-268 = tested on: SF-268
# SF-295 = tested on: SF-295
# SF-539 = tested on: SF-539
# SK-MEL-28 = tested on: SK-MEL-28
# SK-MEL-2 = tested on: SK-MEL-2
# SK-MEL-5 = tested on: SK-MEL-5
# SK-OV-3 = tested on: SK-OV-3
# SN12C = tested on: SN12C
# SNB-19 = tested on: SNB-19
# SNB-75 = tested on: SNB-75
# SR = tested on: SR
# SW-620 = tested on: SW-620
# T47D = tested on: T47D
# TK-10 = tested on: TK-10
# U-251 = tested on: U-251
# UACC-257 = tested on: UACC-257
# UACC-62 = tested on: UACC-62
# UO-31 = tested on: UO-31
# CAKI-1 = tested on: CAKI-1
# EKVX = tested on: EKVX
# MDA-MB-435 = tested on: MDA-MB-435
# OVCAR-8 = tested on: OVCAR-8
smiles,measurement,setting,value
COc1ccc2c(c1)N=C(N)n1c(nc3ccccc31)S2,GI50,786-0,1.95 µM (inactive)
same,GI50,A498,32.1 µM (inactive)
same,GI50,A549,30 µM (inactive)
same,GI50,ACHN,21.3 µM (inactive)
same,GI50,BT-549,27.1 µM (inactive)
same,GI50,CCRF-CEM,2.99 µM (inactive)
same,GI50,COLO 205,5.27 µM (inactive)
same,GI50,DU-145,74.8 µM (inactive)
same,GI50,HCC 2998,48.9 µM (inactive)
same,GI50,HCT-116,3.65 µM (inactive)
same,GI50,HCT-15,25.1 µM
same,GI50,HL-60,3.79 µM (inactive)
same,GI50,HOP-62,57.8 µM (inactive)
same,GI50,HOP-92,11.7 µM (inactive)
same,GI50,HT-29,3.96 µM (inactive)
same,GI50,Hs-578T,58.1 µM (inactive)
same,GI50,IGROV-1,16.1 µM (inactive)
same,GI50,K562,10.9 µM (inactive)
same,GI50,KM12,15.5 µM (inactive)
same,GI50,LOX IMVI,15.9 µM (inactive)
same,GI50,M14,4.01 µM (inactive)
same,GI50,MCF7,10.9 µM (inactive)
same,GI50,MDA-MB-231,12.7 µM (inactive)
same,GI50,MDA-N,3.45 µM (inactive)
same,GI50,MOLT-4,5.28 µM (inactive)
same,GI50,Malme-3M,68.9 µM (inactive)
same,GI50,NCI-H226,45.8 µM (inactive)
same,GI50,NCI-H23,10.4 µM (inactive)
same,GI50,NCI-H460,8.18 µM (inactive)
same,GI50,NCI-H522,12.2 µM (inactive)
same,GI50,NCI/ADR-RES,19.2 µM (inactive)
same,GI50,OVCAR-3,22.2 µM (inactive)
same,GI50,OVCAR-4,4.66 µM (inactive)
same,GI50,OVCAR-5,6.34 µM (inactive)
same,GI50,PC-3,7.24 µM (inactive)
same,GI50,RPMI-8226,4.47 µM (inactive)
same,GI50,RXF 393,19.5 µM (inactive)
same,GI50,SF-268,19.5 µM (inactive)
same,GI50,SF-295,38.5 µM (inactive)
same,GI50,SF-539,34.6 µM (inactive)
same,GI50,SK-MEL-28,70.1 µM (inactive)
same,GI50,SK-MEL-2,7.98 µM (inactive)
same,GI50,SK-MEL-5,7.29 µM (inactive)
same,GI50,SK-OV-3,30.5 µM (inactive)
same,GI50,SN12C,51.6 µM (inactive)
same,GI50,SNB-19,82 µM (inactive)
same,GI50,SNB-75,31.7 µM (inactive)
same,GI50,SR,5.52 µM (inactive)
same,GI50,SW-620,39.9 µM (inactive)
same,GI50,T47D,15.2 µM (inactive)
same,GI50,TK-10,> 100 µM (inactive)
same,GI50,U-251,6.27 µM (inactive)
same,GI50,UACC-257,11.8 µM (inactive)
same,GI50,UACC-62,16.3 µM (inactive)
same,GI50,UO-31,12.2 µM (inactive)
C=CCOn1c(C=C)nc2ccc(C)cc21,GI50,786-0,14 µM (inactive)
same,GI50,A498,17.1 µM (inactive)
same,GI50,A549,22.7 µM (inactive)
same,GI50,ACHN,20.1 µM (inactive)
same,GI50,BT-549,19.7 µM (inactive)
same,GI50,CAKI-1,20.4 µM (inactive)
same,GI50,CCRF-CEM,2.44 µM (inactive)
same,GI50,COLO 205,13.6 µM (inactive)
same,GI50,EKVX,19.4 µM (inactive)
same,GI50,HCC 2998,18.5 µM (inactive)
same,GI50,HCT-116,12.1 µM (inactive)
same,GI50,HCT-15,17 µM
same,GI50,HL-60,5.01 µM (inactive)
same,GI50,HOP-62,17.9 µM (inactive)
same,GI50,HOP-92,34.9 µM (inactive)
same,GI50,HT-29,14.1 µM (inactive)
same,GI50,Hs-578T,27.2 µM (inactive)
same,GI50,IGROV-1,26.2 µM (inactive)
same,GI50,K562,20.6 µM (inactive)
same,GI50,KM12,17.3 µM (inactive)
same,GI50,LOX IMVI,12.8 µM (inactive)
same,GI50,M14,16.5 µM (inactive)
same,GI50,MCF7,10.1 µM (inactive)
same,GI50,MDA-MB-231,16.7 µM (inactive)
same,GI50,MDA-MB-435,13.6 µM (inactive)
same,GI50,MDA-N,17.1 µM (inactive)
same,GI50,MOLT-4,8.18 µM (inactive)
same,GI50,Malme-3M,18 µM (inactive)
same,GI50,NCI-H226,20.2 µM (inactive)
same,GI50,NCI-H23,19.8 µM (inactive)
same,GI50,NCI-H460,13.7 µM (inactive)
same,GI50,NCI-H522,15.5 µM (inactive)
same,GI50,NCI/ADR-RES,25.9 µM (inactive)
same,GI50,OVCAR-3,16 µM (inactive)
same,GI50,OVCAR-4,29.3 µM (inactive)
same,GI50,OVCAR-5,18.4 µM (inactive)
same,GI50,OVCAR-8,23.6 µM (inactive)
same,GI50,PC-3,12.9 µM (inactive)
same,GI50,RPMI-8226,2.95 µM (inactive)
same,GI50,SF-268,24 µM (inactive)
same,GI50,SF-295,25.6 µM (inactive)
same,GI50,SK-MEL-28,18.7 µM (inactive)
same,GI50,SK-MEL-2,15.5 µM (inactive)
same,GI50,SK-MEL-5,17.5 µM (inactive)
same,GI50,SK-OV-3,35.2 µM (inactive)
same,GI50,SN12C,16.3 µM (inactive)
same,GI50,SNB-19,17.9 µM (inactive)
same,GI50,SNB-75,16 µM (inactive)
same,GI50,SR,7.59 µM (inactive)
same,GI50,SW-620,15.4 µM (inactive)
same,GI50,T47D,10.7 µM (inactive)
same,GI50,TK-10,13.6 µM (inactive)
same,GI50,U-251,12.5 µM (inactive)
same,GI50,UACC-257,13.7 µM (inactive)
same,GI50,UACC-62,13.6 µM (inactive)
same,GI50,UO-31,13.6 µM (inactive)
Cn1nc(-c2ccccc2)nc1[N+](=O)[O-],GI50,786-0,> 10 µM (inactive)
same,GI50,A498,> 10 µM (inactive)
same,GI50,A549,> 10 µM (inactive)
same,GI50,ACHN,> 10 µM (inactive)
same,GI50,BT-549,> 10 µM (inactive)
same,GI50,CAKI-1,> 10 µM (inactive)
same,GI50,CCRF-CEM,> 10 µM (inactive)
same,GI50,COLO 205,> 10 µM (inactive)
same,GI50,DU-145,> 10 µM (inactive)
same,GI50,EKVX,> 10 µM (inactive)
same,GI50,HCC 2998,> 10 µM (inactive)
same,GI50,HCT-116,> 10 µM (inactive)
same,GI50,HCT-15,> 10 µM
same,GI50,HL-60,> 10 µM (inactive)
same,GI50,HOP-62,> 10 µM (inactive)
same,GI50,HOP-92,> 10 µM (inactive)
same,GI50,HT-29,> 10 µM (inactive)
same,GI50,Hs-578T,> 10 µM (inactive)
same,GI50,IGROV-1,> 10 µM (inactive)
same,GI50,K562,> 10 µM (inactive)
same,GI50,KM12,> 10 µM (inactive)
same,GI50,LOX IMVI,> 10 µM (inactive)
same,GI50,M14,> 10 µM (inactive)
same,GI50,MDA-MB-231,> 10 µM (inactive)
same,GI50,MDA-MB-435,> 10 µM (inactive)
same,GI50,MDA-N,> 10 µM (inactive)
same,GI50,MOLT-4,> 10 µM (inactive)
same,GI50,Malme-3M,> 10 µM (inactive)
same,GI50,NCI-H226,> 10 µM (inactive)
same,GI50,NCI-H23,> 10 µM (inactive)
same,GI50,NCI-H460,> 10 µM (inactive)
same,GI50,NCI-H522,> 10 µM (inactive)
same,GI50,NCI/ADR-RES,> 10 µM (inactive)
same,GI50,OVCAR-3,> 10 µM (inactive)
same,GI50,OVCAR-4,> 10 µM (inactive)
same,GI50,OVCAR-5,> 10 µM (inactive)
same,GI50,OVCAR-8,> 10 µM (inactive)
same,GI50,PC-3,> 10 µM (inactive)
same,GI50,RPMI-8226,> 10 µM (inactive)
same,GI50,RXF 393,> 10 µM (inactive)
same,GI50,SF-268,> 10 µM (inactive)
same,GI50,SF-295,> 10 µM (inactive)
same,GI50,SF-539,> 10 µM (inactive)
same,GI50,SK-MEL-28,> 10 µM (inactive)
same,GI50,SK-MEL-2,> 10 µM (inactive)
same,GI50,SK-MEL-5,> 10 µM (inactive)
same,GI50,SK-OV-3,> 10 µM (inactive)
same,GI50,SN12C,> 10 µM (inactive)
same,GI50,SNB-19,> 10 µM (inactive)
same,GI50,SNB-75,> 10 µM (inactive)
same,GI50,SR,> 10 µM (inactive)
same,GI50,SW-620,> 10 µM (inactive)
same,GI50,T47D,> 10 µM (inactive)
same,GI50,TK-10,> 10 µM (inactive)
same,GI50,U-251,> 10 µM (inactive)
same,GI50,UACC-257,> 10 µM (inactive)
same,GI50,UACC-62,> 10 µM (inactive)
same,GI50,UO-31,> 10 µM (inactive)
